Test results published in PMC12141164, “Phase-1 study of vamotinib (PF-114), a 3rd generation BCR::ABL1 tyrosine kinase-inhibitor, in chronic myeloid leukaemia” (Annals of Hematology, 2025).
Where two headings read alike, the source gives them in different places.

How the values were obtained:
[1] = Pharmacokinetics in plasma after single- and multiple-dose administration; assay type: in vivo, human
Experimental: Blood samples were obtained to evaluate pharmacokinetics and pharmacodynamics (Tables S1, S1.1, S1.2). Data on phosphorylated CrkL protein (pCrkL) concentration were evaluated in samples from 4 subjects.
Pharmacokinetic measurements were done on days 1 and 29–30 of treatment. […] Steady-state was reached after 8 days of dosing, Fig. 1.
PF-114 was determined in human plasma samples using validated analytical method. […] The analytical method used 200 µL of plasma sample for each analysis. Analyte was isolated from plasma by a solid-phase extraction procedure performed on Oasis MCX extraction columns.
According to the Protocol, population for the pharmacokinetic analysis consists of all patients, who took at least one dose of PF-114, with respect to which sufficient amount of data on concentration of the study drug in the blood. The analysis of data on pharmacokinetic properties of the drug is carried out in this population of patients. All PK analyses will be presented on two subsets described in more detail below:
The PK concentration set (PK-C): This set includes all treated subjects who have at least 1 measured concentration.
The PK parameter analysis set (PK-P): This set consists of subjects from PK-C, who have no major protocol violation relevant to the evaluation of Pharmacokinetics, and who have at least 1 estimated PK parameter. Listings include all available raw data without any exclusions.

TAK1 = settings: kinase inhibition profiles; cited from earlier work
VEGFR2 = settings: kinase inhibition profiles; cited from earlier work
rats = system: rats; design: method as in PMID 25394714; settings: pre-clinical toxicology; cited from earlier work
[2] = human, plasma, oral, 50 mg, Multiple-dose administration
[3] = human, plasma, oral, 50 mg, Single-dose administration
[4] = human, plasma, oral, 100 mg, Multiple-dose administration
[5] = human, plasma, oral, 100 mg, Single-dose administration
[6] = human, plasma, oral, 200 mg, Multiple-dose administration
[7] = human, plasma, oral, 200 mg, Single-dose administration
[8] = human, plasma, oral, 300 mg, Multiple-dose administration
[9] = human, plasma, oral, 300 mg, Single-dose administration
[10] = human, plasma, oral, 400 mg, Multiple-dose administration
[11] = human, plasma, oral, 400 mg, Single-dose administration
[12] = human, plasma, oral, 500 mg, Multiple-dose administration
[13] = human, plasma, oral, 500 mg, Single-dose administration
[14] = human, plasma, oral, 600 mg, Multiple-dose administration
[15] = human, plasma, oral, 600 mg, Single-dose administration
[16] = human, plasma, oral, 750 mg, Single-dose administration

Cc1ccc(C(=O)Nc2ccc(CN3CCN(C)CC3)c(C(F)(F)F)c2)cc1C#Cc1nnc2ccccn12 [vamotinib]
Ctrough, Mean ([1]; Multiple-dose administration, 50 mg): 7,35 ng/ml
Ctrough, Mean ([1]; Multiple-dose administration, 100 mg): 8,90 ng/ml
Ctrough, Mean ([1]; Multiple-dose administration, 200 mg): 21,92 ng/ml
Ctrough, Mean ([1]; Multiple-dose administration, 300 mg): 22,45 ng/ml
Ctrough, Mean ([1]; Multiple-dose administration, 400 mg): 35,34 ng/ml
Ctrough, Mean ([1]; Multiple-dose administration, 500 mg): 38,40 ng/ml
Ctrough, Mean ([1]; Multiple-dose administration, 600 mg): 49,78 ng/ml
linearity of pharmacokinetics (concentration-time profiles) ([1]; dose range 50–750 mg): linear or near-linear pharmacokinetics
half-life ([1]; human, plasma, oral): 810 min
Cmax [1, 2]: 33.3 ng/mL
Tmax [1, 2]: 1.9 h
AUC(0-t) ([1]; human, plasma, oral, 50 mg, Multiple-dose administration, 50 mg, read-out: AUC0-24, Mean): 445 ng·h/mL
Cmax [1, 3]: 25.3 ng/mL
Tmax [1, 3]: 2.67 h
AUC(0-t) ([1]; human, plasma, oral, 50 mg, Single-dose administration, 50 mg, read-out: AUC0-t, Mean): 252 ng·h/mL
Cmax [1, 4]: 94 ng/mL
Tmax [1, 4]: 3.36 h
AUC(0-t) ([1]; human, plasma, oral, 100 mg, Multiple-dose administration, 100 mg, read-out: AUC0-24, Mean): 1260 ng·h/mL
Cmax [1, 5]: 89.7 ng/mL
Tmax [1, 5]: 4.67 h
AUC(0-t) ([1]; human, plasma, oral, 100 mg, Single-dose administration, 100 mg, read-out: AUC0-t, Mean): 1070 ng·h/mL
Cmax [1, 6]: 109 ng/mL
Tmax [1, 6]: 3.36 h
AUC(0-t) ([1]; human, plasma, oral, 200 mg, Multiple-dose administration, 200 mg, read-out: AUC0-24, Mean): 1580 ng·h/mL
Cmax [1, 7]: 82.1 ng/mL
Tmax [1, 7]: 3.46 h
AUC(0-t) ([1]; human, plasma, oral, 200 mg, Single-dose administration, 200 mg, read-out: AUC0-t, Mean): 1060 ng·h/mL
Cmax [1, 8]: 148 ng/mL
Tmax [1, 8]: 4.52 h
AUC(0-t) ([1]; human, plasma, oral, 300 mg, Multiple-dose administration, 300 mg, read-out: AUC0-24, Mean): 2260 ng·h/mL
Cmax [1, 9]: 125 ng/mL
Tmax [1, 9]: 3.58 h
AUC(0-t) ([1]; human, plasma, oral, 300 mg, Single-dose administration, 300 mg, read-out: AUC0-t, Mean): 1630 ng·h/mL
Cmax [1, 10]: 177 ng/mL
Tmax [1, 10]: 4 h
AUC(0-t) ([1]; human, plasma, oral, 400 mg, Multiple-dose administration, 400 mg, read-out: AUC0-24, Mean): 2710 ng·h/mL
Cmax [1, 11]: 120 ng/mL
Tmax [1, 11]: 4.72 h
AUC(0-t) ([1]; human, plasma, oral, 400 mg, Single-dose administration, 400 mg, read-out: AUC0-t, Mean): 1740 ng·h/mL
Cmax [1, 12]: 228 ng/mL
Tmax [1, 12]: 4.04 h
AUC(0-t) ([1]; human, plasma, oral, 500 mg, Multiple-dose administration, 500 mg, read-out: AUC0-24, Mean): 3490 ng·h/mL
Cmax [1, 13]: 116 ng/mL
Tmax [1, 13]: 3.96 h
AUC(0-t) ([1]; human, plasma, oral, 500 mg, Single-dose administration, 500 mg, read-out: AUC0-t, Mean): 1500 ng·h/mL
Cmax [1, 14]: 179 ng/mL
Tmax [1, 14]: 3.62 h
AUC(0-t) ([1]; human, plasma, oral, 600 mg, Multiple-dose administration, 600 mg, read-out: AUC0-24, Mean): 2800 ng·h/mL
Cmax [1, 15]: 212 ng/mL
Tmax [1, 15]: 4.65 h
AUC(0-t) ([1]; human, plasma, oral, 600 mg, Single-dose administration, 600 mg, read-out: AUC0-t, Mean): 3020 ng·h/mL
Cmax [1, 16]: 225 ng/mL
Tmax [1, 16]: 4.5 h
AUC(0-t) ([1]; human, plasma, oral, 750 mg, Single-dose administration, 750 mg, read-out: AUC0-t, Mean): 3290 ng·h/mL
time of dosing to reach steady-state ([1]; once daily dosing): 8 days
concentration in the blood during the day ([1]; starting from a dose of 200 mg): exceeds 75 nM
inhibition of TAK1 (TAK1): not
inhibition of VEGFR2 (VEGFR2): not
Rash (rats): Rash was seen
